According to patent publication US20060078584A1, “Multi-functional oxidizing composition” (priority 2004, published 2006):
Where two headings read alike, the source gives them in different places.

Assays:
[1] = Storage stability of dry blends (ambient and accelerated aging in humid oven); assay type: physicochemical; details: one month
Description: In all examples, active oxidant concentrations are expressed in weight percent and are determined by standard iodometric titration as described in the “OXONE Monopersulfate Compound Technical Information” Bulletin, No. H-42434-5, dated April 2000, published by E. I. du Pont de Nemours and Company.
A weighed sample (0.05-0.30 g) to be analyzed is dissolved in cold deionized water (<10° C., about 50 mL), treated with potassium iodide solution (10 mL 25% aqueous), acidified (10 mL 20% sulfuric acid), and titrated with standardized 0.1N sodium thiosulfate reagent to an endpoint visualized by a starch indicator. The total active oxidant content (active oxygen+active halogen) is expressed as percent active oxygen (% AO) and is calculated as follows: % AO=(0.8×Volume of titrant, mL)(Normality of titrant)/(Sample Weight, g).
OXONE monopersulfate compound (180 g, 90 wt. %) and anhydrous sodium dichloro-s-triazinetrione (20 g, 10 wt. %) were dry blended in a 250-ml high-density poly(propylene (HDPE) bottle. The mixture was placed on a laboratory roll mill for two hours to ensure complete blending of the components. The blended product was then divided into two portions. One portion was stored at ambient conditions (22±2° C., 55±5% relative humidity [RH]); the other in a humid oven at 50±2° C., 80±5% RH denoted as “accelerated aging”). Both portions were stored in sealed screw-cap HDPE bottles. Both samples were monitored on a weekly basis for one month to assess physical integrity and active oxidant loss. […]. […].

[2] = cited from earlier work
[3] = Solubility in water and in acidic potassium monopersulfate solution; details: in a 20% potassium monopersulfate solution, pH of about 1.2
[4] = accelerated aging, 50° C., 80% RH
[5] = accelerated aging, 50±2° C., 80±5% RH, sealed HDPE containers

SMILES: O=c1nc([O-])n(Cl)c(=O)n1Cl.[Na+] [Comparative Example E, Anhydrous sodium dichloro-s-triazinetrione]
- Active oxidant retention / loss [1, 4]: acceptable active oxidant stability
- Chlorine odor / halogen evolution [1, 4]: characteristic chlorine odor
- Flowability [1, 4]: good flowability
- Chlorine Odor (degree 0-5) [1, 5]: 3
- Flowability [1, 5]: Free-flowing
- Total % AO Remaining (%) ([1]; total oxidant (active oxygen + active halogen) remaining after accelerated storage, 50° C., 80% RH): 93%
- Solubility in water ([2]; neutral pH (about pH 6-7), 25° C.): about 24 g/100 g H2O
- Solubility [3]: about 1 g/100 mL

SMILES: CC1(C)C(=O)N(Br)C(=O)N1Cl [bromochlorodimethylhydantion, 3-bromo-1-chloro-5,5-dimethylhydantoin]
- Solubility in water [2]: 0.2 g/100 g water

SMILES: CC1(C)C(=O)N(Br)C(=O)N1Br [dibromodimethylhydantion, 1,3-dibromo-5,5-dimethylhydantoin]
- Solubility in water [2]: 0.25 g/100 g water

SMILES: CC1(C)C(=O)N(Cl)C(=O)N1Cl [dichlorodimethylhydantion, 1,3-dichloro-5,5-dimethylhydantoin]
- Solubility in water [2]: 0.2 g/100 g water
